Source: patent publication US10166221B2, “Formulations of an LSD1 inhibitor” (Incyte Corporation, priority 2016, dated 2019)
Counter-ions that a name gives are not always drawn.

Assays:
[1] = Crystalline form change under storage conditions; assay type: physicochemical; settings: storage conditions of 25° C./60% RH and 40° C./75% RH
Procedure: Form HI of Compound 1 di-tosylate salt was prepared during the process of drying a wet sample of Compound 1 di-tosylate salt, Form I, under ambient conditions. Form I slowly absorbed atmospheric moisture and gradually changed to crystalline Form HI.
Form HI of Compound 1 di-tosylate salt was prepared during the process of drying a wet sample of Compound 1 di-tosylate salt, Form I, under ambient conditions. Form I slowly absorbed atmospheric moisture and gradually changed to crystalline Form HI. […] Form HI can also be generated by purging humidified air (e.g., 60-85% RH) through Form I solid.

[2] = Excipient compatibility, mass spectroscopy HPLC method (% Compound 2); assay type: physicochemical
Description: (low and high RH at both temperatures).

[3] = Excipient compatibility, UV HPLC method (degradation, impurities other than Compound 2)
Procedure: This study was performed to determine stability of Compound 1 di-tosylate salt, Form I, in combination with various oral solid dosage form excipients. […] The data of the blends were compared with a control sample (Compound 1 di-tosylate salt alone) to assess the effect of each excipient relative to Compound 1 di-tosylate salt alone.
Blends were prepared by screening the components together; aliquots were then weighed for stability testing. The binary blend samples were initially stored under accelerated conditions (50° C./dry, 50° C./75% RH) in open glass vials and analyzed by HPLC to determine the potential for drug substance degradation with each excipient. […] Analysis of a control (Compound 1 di-tosylate salt alone) was included for comparison at each condition.
Compound 1 di-tosylate salt was blended at the desired ratio of excipient to drug (see Table 7 below) by weighing each material, mixing with a spatula in a vial, and screening the mixture 5 times with an 18 mesh screen. A control sample was included for comparison to the blends. The weight equivalent of approximately 4 mg of Compound 1 di-tosylate salt was added to each glass vial and initially set-up at 50° C./dry (<20% RH) and 50° C./75% RH. Based on results after 1 week at 50° C.; additional samples were set-up at 40° C./dry and 40° C./75% RH. […] The 75% RH chamber was maintained by using a saturated sodium chloride solution in water (inside a closed chamber). The humidity of the 75% RH chamber was verified with a hygrometer (VWR brand). Samples were tested by HPLC after 1 week at 50° C. and 1 and 2 weeks at 40° C. (low and high RH at both temperatures). Data were also measured for samples at 20° C. in closed vials.
Samples were analyzed by HPLC using the method described below after dilution in 85% H2O (0.1% TFA)/15% acetonitrile to 4 mL, sonication for 5 minutes, and filtration (0.45 μm Acrodisc GHP). One injection per sample was performed at each stability station. Two methods were performed on the stability samples: a UV based HPLC method and a mass spectroscopy HPLC method performed for one impurity (Compound 2).
UV HPLC Method-Instrument: Agilent 1260 HPLC; Column: Ascentis Express C18 4.6×150 mm; Mobile Phase A: Water (0.1% TFA); Mobile Phase B: Acetonitrile (0.1% TFA); Flow Rate: 1.0 mL/min; Injection volume: 10 μL; UV Detection 214 nm; Column Temperature: 30° C.; Run Time: 33 min; Sample concentration: 1.0 mg/mL as salt; Threshold: 0.1%; Gradient Program:
Accelerated storage (50° C., 40° C.) conditions were used to identify potential drug-excipient interactions.

[4] = DVS moisture uptake analysis; assay type: physicochemical
Procedure: Form DH was characterized by DVS. The DVS analysis was performed on a TA Instruments Vapor Sorption Analyzer, model VTI-SA^+. Form DH was generated by pre-drying Form HI on VTI at 40° C. with 0% RH N2 for 3 h. Then the moisture uptake profile was completed in one cycle in 5% RH increments with adsorption from 0% RH to 95% RH followed by desorption in 5% increments from 95% to […]. The equilibration criteria were 0.0010 wt % in 5 minutes with a maximum equilibration time of 180 minutes. All adsorption and desorption were performed at 25° C.

Compound | Crystalline form change on storage [1] | % Compound 2 ([2]; 1 w 50° C./75% RH) [%] | % Compound 2 ([2]; 1 w 50° C./dry) [%] | 2 W 20° C. % of cmpd 2 ([2]; 20° C., 2 w, closed vials) [%] | wt % of Compound 2 ([2]; 40° C. (dry) 1 W) [wt %] | wt % of Compound 2 ([2]; 40° C. (dry) 2 W) [wt %] | wt % of Compound 2 ([2]; 40° C./75% RH 1 w) [wt %] | wt % of Compound 2 ([2]; 40° C./75% RH 2 w) [wt %] | Compound 1 di-tosylate salt degradation (UV Method) ([3]; 1 W 40° C./75% RH) [%] | Compound 1 di-tosylate salt degradation (UV Method) ([3]; 1 W 40° C./dry) [%] | Compound 1 di-tosylate salt degradation (UV Method) ([3]; 1 w 50° C./75% RH, open glass vials, peak area percent) [%] | Compound 1 di-tosylate salt degradation (UV Method) ([3]; 1 w 50° C./dry (<20% RH), open glass vials, peak area percent) [%] | Compound 1 di-tosylate salt degradation (UV Method) ([3]; 2 W 40° C./75% RH) [%] | Compound 1 di-tosylate salt degradation (UV Method) ([3]; 2 W 40° C./dry) [%] | 20° C. 2 w UV method ([3]; 20° C., 2 w, closed vials) [%] | Hygroscopicity (DVS) ([4]; adsorption 0% RH to 95% RH, desorption 95% to 85% RH, 25° C.) | Solid collected after DVS ([4]; after DVS at 85% RH)
COCC1(CN[C@@H]2C[C@H]2c2ccccc2)CCN(CC2(C(=O)O)CCC2)CC1 [Cmpd 1 di-tosylate salt alone, 1-{[4-(methoxymethyl)-4-({[(1R,2S)-2-phenylcyclopropyl]amino}methyl)piperidin-1-yl]methyl}cyclobutanecarboxylic acid bis(4-methylbenzenesulfonate)] | converted to Form HI | 2.47 | 2.37 | 0.43 | 1.4 | 3.4 | 1.3 | 1.9 | <0.1 | 0.43 | 0.3 | 1.4 | <0.1 | 0.86 | <0.1 | – | –
COCC1(CN[C@@H]2C[C@H]2c2ccccc2)CCN(CC2(C(=O)O)CCC2)CC1 [Form DH] | – | – | – | – | – | – | – | – | – | – | – | – | – | – | – | hygroscopic | Form HI
